Source: the METLIN SMRT retention time set (Domingo-Almenara et al. 2019)

Test: gradient 5% acetonitrile 3 min, to 50% in 2 min, to 85% in 15 min, held 3 min, 100 µL/min
Details: column: Zorbax Extend-C18 2.1 x 50 mm; eluents: water / acetonitrile, 0.1% formic acid
Summary of the method: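 In both positive and negative ionization mode, a quadrupole time-of-flight mass spectrometer coupled to HPLC analyzed pure standards run in mixtures of ~100 molecules. The Zorbax Extend-C18 column (2.1 × 50 mm, 1.8 μm) was operated at 100 μL/min with water and acetonitrile, each containing 0.1% formic acid. The dead volume was 40 μL and the dwell volume 900 μL. Retention time came from adduct peaks that were computationally picked and individually inspected by hand.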

SMILES	RP-LC retention time
CC(C)(C)n1nc(C2CC2)cc1NC(=O)Nc1ccccc1	889 s
Cc1ccc(N2CCCS2(=O)=O)cc1NS(=O)(=O)CCc1ccccc1	784 s
CCCn1cc(CCNS(=O)(=O)c2cccc(OC)c2)c2cccnc21	837 s
CCCCCCNC(=O)C1CC(=O)N(CCc2c[nH]c3ccc(C)cc23)C1 (stereo unspecified)	864 s
O=C(CN1CCN(Cc2ccccc2F)C1=O)NC1CCN(Cc2ccccc2)CC1	610 s
CC(Cc1cc2c(c(C(N)=O)c1)N(CCCO)CC2)NCCOc1ccccc1OCC(F)(F)F (stereo unspecified)	654 s
Cc1cc2[nH]c(C(=O)Nc3ccc(F)cc3)c(CN3CCOCC3)c2s1	666 s
Cc1ccccc1CN1C[C@@H]2C(=O)N(CCCN3CCCC3=O)C(=O)[C@@H]2C1	606 s
CCOc1ccc(C(=O)N2CCc3nc(-c4ccc(OC)cc4)ncc3C2)cc1	962 s
COc1ccc(Cl)cc1NC(=O)NCCN1CCN(S(C)(=O)=O)CC1	564 s
Cc1ccc(C)c(N2CCN(S(=O)(=O)c3cc(-c4nnc(C5CC5)o4)co3)CC2)c1	1140 s
CC(C)c1cccc(NC(=O)Cn2nc3n(c2=O)CCCCC3)c1	700 s
COc1cccc(NC(=O)Cn2nc3cc(C)nc(Nc4ccccc4C)n3c2=O)c1	1010 s
Cc1ccccc1Cn1cnc2c(cnn2CCNC(=O)Cn2cnc3ccccc32)c1=O	578 s
CC(C)NC(=O)c1ccc(-c2ccc(Cl)cc2)o1	874 s
CCOC(=O)c1ccccc1NC(=O)N1CCOc2ccc(C)cc21	1220 s
O=C(Cn1c(=O)n(Cc2ccc3c(c2)OCO3)c(=O)c2ncccc21)c1ccccc1	818 s
CCN1C(=O)C2(CCN(S(=O)(=O)c3ccc(OC)c(Cl)c3)CC2)c2ccccc21	1080 s
CCC(C)NC(=O)c1ccc2c(c1)CCCN2S(=O)(=O)CC (stereo unspecified)	781 s
Cc1noc([C@@H]2CN(C(=O)c3ccoc3C)C[C@H]2C(N)=O)n1	599 s
CC1CCc2nn(CC(=O)NCCCN(Cc3ccccc3)C(C)C)cc2C1 (stereo unspecified)	592 s
Cc1ccc(-c2cc(C(=O)N3CCN(c4ccccn4)CC3)ccn2)s1	639 s

SMILES	RP-LC retention time
O=C(Cc1ccc(Br)cc1)NC1CCN(c2cc(-c3ccc(F)cc3)[nH]n2)C1 (stereo unspecified)	780 s
Cc1cc(NC(=O)C2CCN(C(=O)c3cccc(-n4cnnn4)c3)CC2)no1	621 s
CCCNC(=O)c1nnc(-c2ccc(S(=O)(=O)N3CCOCC3)cc2)o1	724 s
Cc1cccc(CS(=O)(=O)N(CCc2cccs2)Cc2cccnc2)c1	691 s
CC(=O)Nc1ccc(C2(C(=O)NCc3ccccc3F)CCC2)cc1	732 s
Cc1nn(-c2ccc(F)cc2)c(C)c1S(=O)(=O)N1CCC(C(=O)NCc2cccs2)CC1	861 s
O=C(Cn1c(=O)oc2ccccc21)N1CCC(c2noc(-c3ccncc3)n2)C1 (stereo unspecified)	712 s
CCc1nc(-c2csc(S(=O)(=O)N3CCC(C(=O)NC4CCCCCC4)CC3)c2)no1	997 s
Cn1nnc2cc(CNC(=O)c3cccnc3)ccc21	566 s
O=C(NC1CCN(Cc2ccccc2)CC1)c1cc2n(n1)CCCN(Cc1ccc(F)cc1)C2=O	658 s
O=C1CCCN1CCCN1C(=O)[C@H]2CN(Cc3cccc(Cl)c3F)C[C@H]2C1=O	660 s
CC(C)NC(=O)N1C[C@@H]2CCCN3CCC[C@@H]([C@H]23)[C@H]1CCCC(=O)NCC1CC1	578 s
CCS(=O)(=O)Nc1ccc(-c2noc(CNS(=O)(=O)c3ccccc3)n2)cc1	720 s
CNC(=O)c1oc2ccccc2c1NC(=O)C1CCC1	803 s
CCN1C(=O)C2(CCN(S(=O)(=O)c3ccc(C(F)(F)F)cc3)CC2)c2ccccc21	1130 s
CC1=C(c2ccccc2)S(=O)(=O)N=C1N1CCCN(C(=O)c2ccco2)CC1	719 s
Cc1ccc(-c2nnc(SCC(=O)Nc3cc(C)ccc3C)o2)cc1	802 s
O=C(OCc1nc2ccccc2s1)c1ccc([N+](=O)[O-])s1	970 s
C=CCn1ccc2c(OCC(=O)Nc3ccc4c(c3)OCO4)cccc2c1=O	805 s
CCC(=O)N1CCC(Cc2noc(C3CC3)n2)C1 (stereo unspecified)	671 s
CC1CCN(c2cc(-n3cnc(C(=O)N4CCC(C(N)=O)CC4)c3)ncn2)CC1	669 s
CCOc1ccc(-c2nc(NC(=O)c3sc(C)nc3C)sc2C)cc1	976 s

SMILES	RP-LC retention time
CC(=O)N1CCc2cc(N3CC(C(=O)Nc4ccc(C)cc4C)CC3=O)ccc21 (stereo unspecified)	786 s
CCOc1ccc(S(=O)(=O)Nc2cc(-c3cn4ccccc4n3)ccc2C)cc1	687 s
CC1(C(=O)NCc2ccccc2)Cn2cnc(C(=O)NC3CC3)c2C(=O)N1C1CC1 (stereo unspecified)	660 s
O=C1CC(c2nc(-c3ccccc3F)no2)CN1c1ccc2c(c1)OCCO2 (stereo unspecified)	860 s
CC1CCN(C(=O)c2ccc(CN3C(=O)C4CCCN4C(=O)c4ccccc43)cc2)CC1 (stereo unspecified)	790 s
Cn1c(C(=O)NCc2ccccc2)cc2sccc21	892 s
COc1ccc(-c2noc(C(C)NC(C)=O)n2)cc1 (stereo unspecified)	680 s
CC1(C)CC(=O)c2cn(-c3ccccc3)c(=O)c(C(=O)NC3CCCCC3)c2C1	1010 s
CC1CCN(Cc2nc(Cn3ccn4nc(-c5ccc(F)cc5)cc4c3=O)no2)CC1	703 s
CC1=C(c2ccc(F)cc2)S(=O)(=O)N=C1N1CCCN(C(=O)NC2CCCCC2)CC1	845 s
CCCN1CCN(C(=O)C(C)C2CCN(S(=O)(=O)c3ccc(Br)s3)CC2)CC1 (stereo unspecified)	689 s
CCn1cc(S(=O)(=O)N2CCCN(S(=O)(=O)c3ccccc3)CCC(=O)NCC2)cn1	702 s
O=C(Nc1nc2c(s1)COc1ccccc1-2)C1COc2ccccc2O1 (stereo unspecified)	980 s
CC(NC(=O)c1cn(-c2cc(-c3nc(C4CC4)no3)ccn2)cn1)c1ccccc1 (stereo unspecified)	981 s
CCOC(=O)c1c(CN2CCOCC2)n(C)c2cc(-c3cccnc3)c(O)cc12	535 s
COC[C@@H]1CN(Cc2ccc3[nH]ccc3c2)C[C@H]1c1nc(C)no1	610 s
CCC1CCCCN1C(=O)c1cnc2nc(C)ccc2c1Nc1ccc(S(N)(=O)=O)cc1 (stereo unspecified)	589 s
CN(Cc1ccccc1)C(=O)c1cc2cccnc2n(Cc2ccccc2)c1=O	950 s
Cc1cccc(CNC(=O)C2c3ccccc3CC(=O)N2C(C)C)c1 (stereo unspecified)	825 s
CCCn1cc(C2=CCN(C(=O)NCC3CCCO3)CC2)c2cccnc21 (stereo unspecified)	719 s
COCc1noc(C2CN(C(=O)c3ocnc3C)CC23CCCC3)n1 (stereo unspecified)	733 s
CCOC(=O)c1c(C)c(CCC(=O)NCc2cn[nH]c2C)n(C)c1C	663 s
